Among the data in patent US10851072B2 (THE REGENTS OF THE UNIVERSITY OF MICHIGAN, priority 2018, dated 2020) are IC50 and half-life values, retold here.

The test system of data set [1] is serum response element (SRE). Kind of data set: SRE.L-Luciferase Reporter Assay. The data set is classed as cell-based. The conditions noted are these: Homo sapiens, HEK-293T cells co-transfected with Gα12Q231L, SRE.L and pRL-TK plasmids, 19 hrs treatment. The method, then: Biological activity of the compounds disclosed herein were assessed in the SRE.L luciferase reporter assay. HEK-293T cells were co-transfected with 2 ng of the Gα12Q231L expression plasmid along with 50 ng of the SRE.L and 7 ng of the pRL-TK luciferase reporter plasmids, as described in the Materials and Methods section. Cells were treated with 0 (vehicle, DMSO alone), 1, 3, 10, 30, and 100 μM of a compound disclosed herein for 19 hrs after transfection before lysis. Luminescence was determined as described in the Materials and Methods section. Just before cell lysis, the viability of the cells was measured using the WST-1 cell proliferation reagent as described in the Materials and Methods section. Data are expressed as percentage of inhibition (DMSO alone=0%). The experiments were performed three separate times to achieve n=3 in triplicate.

Data set [2] can be described thus: MLM metabolic stability (half-life). The data set is classed as in vitro ADME, mice. As to conditions: mouse, mouse liver microsomes (MLM), 1 μM compound, beta-NADPH 1 mM, 60 min, LC-MS, read-out: MLM T1/2. The method, then: Compounds (1 μM) were incubated with MLM in the presence of beta-NADPH (1 mM) for 60 min. The remaining drug concentration was measured using LC-MS using multiple reaction monitoring (MRM) mode. Both initial and overall disappearance rate and half-lives were calculated. […] Verapamil was run as a positive control in every assay; its half-life could not exceed 4 min or the assay was considered invalid.

SMILES strings stand for the structures. Where only a bound is given, the exact number is not on record here.

As to `O=C(O)CCCSc1nnc(-c2ccccc2C(F)(F)F)o1` [Compound A5, 4-((5-(2-(trifluoromethyl)phenyl)-1,3,4-oxadiazol-2-yl)thio)butanoic acid], the half-maximal inhibitory concentration (IC50) in data set [1] (Table C) was 6200 nM. Same read-out and setting: then `O=C(O)CCCSc1nnc(-c2ccc(OC(F)F)cc2)o1` [Compound A23, 4-((5-(4-(difluoromethoxy)phenyl)-1,3,4-oxadiazol-2-yl)thio)butanoic acid], with 130 nM.

As to `O=C(O)[C@H]1CC[C@H](Sc2nnc(-c3ccc(Cl)cc3Cl)o2)C1` (relative stereo) [Compound B8, trans-3-((5-(2,4-dichlorophenyl)-1,3,4-oxadiazol-2-yl)thio)cyclopentanecarboxylic acid], in data set [1] (Table E), the IC50 is more than 100000 nM. For the molecule `CC(C)(F)c1ccc(-c2nnc(SCCCC(=O)O)o2)cc1` [Compound A22], in data set [1] (Table C), the IC50 is 9.5 nM. Consider `O=C(O)[C@H]1C[C@H](Sc2nnc(-c3ccc(C(F)(F)F)cc3Cl)o2)C1` [Compound B6, trans-3-((5-(2-chloro-4-(trifluoromethyl)phenyl)-1,3,4-oxadiazol-2-yl)thio)cyclobutanecarboxylic acid], for which the IC50 in data set [1] (Table E) is 1000 nM.

The molecule `O=C(O)CCCSc1nnc(-c2ccc(Cl)cc2Cl)o1` [CCG-232120, reference compound] displayed an IC50 in data set [1] (Table C) of 1.8 nM.

In data set [1] (Table E), `O=C(O)[C@@H]1CC[C@H](Sc2nnc(-c3ccc(Cl)cc3Cl)o2)C1` (relative stereo) [Compound B7, cis-3-((5-(2,4-dichlorophenyl)-1,3,4-oxadiazol-2-yl)thio)cyclopentanecarboxylic acid] yielded a concentration for half-maximal inhibition (IC50) of 15 nM. In data set [1] (Table E), `O=C(O)[C@H]1C[C@@H](Sc2nnc(-c3ccc(Cl)cc3Cl)o2)C1` [Compound B2, cis-3-((5-(2,4-Dichlorophenyl)-1,3,4-oxadiazol-2-yl)thio)cyclobutanecarboxylic acid] yielded an IC50 of 4.9 nM. Also, in data set [2], the half-life at 1 μM is more than 1 h. Turning to `O=C(O)[C@H]1CC[C@H](Sc2nnc(-c3ccc(Cl)cc3Cl)o2)CC1` [Compound B10, trans-4-((5-(2,4-dichlorophenyl)-1,3,4-oxadiazol-2-yl)thio)cyclohexanecarboxylic acid], the IC50 in data set [1] (Table E) was more than 100000 nM.

In data set [1] (Table C), `O=C(O)CCCSc1nnc(-c2ccc(OCC(F)(F)F)cc2Cl)o1` [Compound A12, 4-((5-(2-chloro-4-(2,2,2-trifluoroethoxy)phenyl)-1,3,4-oxadiazol-2-yl)thio)butanoic acid] showed an IC50 of 0.8 nM. Further, the half-life at 1 μM in data set [2] was more than 1 h. Consider `O=C(O)CCCSc1nnc(-c2ccc(Cl)cc2O)o1` [Compound C, 4-((5-(4-chloro-2-hydroxyphenyl)-1,3,4-oxadiazol-2-yl)thio)butanoic acid], for which the IC50 in data set [1] (Table C) was found to be 0.02 nM.

In turn, `O=C(O)CCCSc1nnc(-c2ccc(C(F)F)cc2)o1` [Compound A18, 4-((5-(4-(difluoromethyl)phenyl)-1,3,4-oxadiazol-2-yl)thio)butanoic acid] had an IC50 in data set [1] (Table C) of 160 nM.

`O=C(O)CCCSc1nnc(-c2cc(C3CC3)ccc2Cl)o1` [Compound A4, 4-((5-(2-chloro-5-cyclopropylphenyl)-1,3,4-oxadiazol-2-yl)thio)butanoic acid]: the IC50 in data set [1] (Table D) was found to be 11 nM. The molecule `O=C(O)[C@H]1CC[C@@H](Sc2nnc(-c3ccc(Cl)cc3Cl)o2)CC1` [Compound B9, cis-4-((5-(2,4-dichlorophenyl)-1,3,4-oxadiazol-2-yl)thio)cyclohexanecarboxylic acid] came in with an IC50 in data set [1] (Table E) of more than 100000 nM. Regarding `O=C(O)CCCSc1nnc(-c2ccc(OCC3COC3)cc2Cl)o1` [Compound A15, 4-((5-(2-chloro-4-(oxetan-3-ylmethoxy)phenyl)-1,3,4-oxadiazol-2-yl)thio)butanoic acid], the IC50 in data set [1] (Table D) came to 35 nM.

As to `O=C(O)CCCSc1nnc(-c2ccc(OC3CC3)cc2Cl)o1` [Compound A8, 4-((5-(2-chloro-4-cyclopropoxyphenyl)-1,3,4-oxadiazol-2-yl)thio)butanoic acid], in data set [2], the half-life at 1 μM was more than 1 h. On to `O=C(O)CCCSc1nnc(-c2ccccc2F)o1` [Compound A6, 4-((5-(2-fluorophenyl)-1,3,4-oxadiazol-2-yl)thio)butanoic acid], for which the IC50 in data set [1] (Table C) amounted to 211 nM.

The molecule `O=C(O)[C@H]1C[C@@H](Sc2nnc(-c3ccc(C(F)(F)F)cc3Cl)o2)C1` [Compound B5, cis-3-((5-(2-chloro-4-(trifluoromethyl)phenyl)-1,3,4-oxadiazol-2-yl)thio)cyclobutanecarboxylic acid] showed an IC50 in data set [1] (Table E) of 42 nM. For the molecule `O=C(O)CCCSc1nnc(-c2ccc(OC(F)(F)F)cc2)o1` [Compound A19, 4-((5-(4-(trifluoromethoxy)phenyl)-1,3,4-oxadiazol-2-yl)thio)butanoic acid], the IC50 in data set [1] (Table C) turned out to be 78 nM. Still for that read-out and setting: then `O=C(O)CCCSc1nnc(-c2ccc(OC(F)(F)F)cc2Cl)o1` [Compound A14, 4-((5-(2-chloro-4-(trifluoromethoxy)phenyl)-1,3,4-oxadiazol-2-yl)thio)butanoic acid], with 3.6 nM; and `O=C(O)CCCSc1nnc(-c2ccc(OCC(F)(F)F)cc2)o1` [Compound A17, 4-((5-(4-(2,2,2-trifluoroethoxy)phenyl)-1,3,4-oxadiazol-2-yl)thio)butanoic acid], with 240 nM.

`O=C(O)CCCSc1nnc(-c2ccc(OCC3CC3)cc2Cl)o1` [Compound A7, 4-((5-(2-chloro-4-(cyclopropylmethoxy)phenyl)-1,3,4-oxadiazol-2-yl)thio)butanoic acid] showed an IC50 in data set [1] (Table D) of 0.02 nM. In the case of `COC(=O)CCCSc1nnc(-c2ccc(C3CC3)cc2Cl)o1` [Compound A10, Methyl 4-((5-(2-chloro-4-cyclopropylphenyl)-1,3,4-oxadiazol-2-yl)thio)butanoate], in data set [1] (Table D), the IC50 came out at 3 nM.

`O=C(O)[C@H]1C[C@H](Sc2nnc(-c3ccc(C4CC4)cc3Cl)o2)C1` [Compound B4, trans-3-((5-(2-chloro-4-cyclopropylphenyl)-1,3,4-oxadiazol-2-yl)thio)cyclobutanecarboxylic acid]: the IC50 in data set [1] (Table E) came to 2.6 nM. Still for that read-out and setting: with `O=C(O)[C@H]1C[C@H](Sc2nnc(-c3ccc(Cl)cc3Cl)o2)C1` [Compound B1, trans-3-((5-(2,4-dichlorophenyl)-1,3,4-oxadiazol-2-yl)thio)cyclobutanecarboxylic acid] the figure was 140 nM. Consider `O=C(O)CCCSc1nnc(-c2ccc(C(F)(F)F)cc2Cl)o1` [Compound A2], for which the half-life at 1 μM in data set [2] was more than 1 h.

As to `CC1(COc2ccc(-c3nnc(SCCCC(=O)O)o3)c(Cl)c2)COC1` [Compound A16, 4-((5-(2-chloro-4-((3-methyloxetan-3-yl)methoxy)phenyl)-1,3,4-oxadiazol-2-yl)thio)butanoic acid], the IC50 in data set [1] (Table D) is 42 nM. Take `O=C(O)CCCSc1nnc(-c2cccc(C(F)(F)F)c2Cl)o1` [Compound A20, 4-((5-(2-chloro-3-(trifluoromethyl)phenyl)-1,3,4-oxadiazol-2-yl)thio)butanoic acid]: the IC50 in data set [1] (Table C) worked out at 330 nM. On to `O=C(O)[C@H]1C[C@@H](Sc2nnc(-c3ccc(C4CC4)cc3Cl)o2)C1` [Compound B3, cis-3-((5-(2-chloro-4-cyclopropylphenyl)-1,3,4-oxadiazol-2-yl)thio)cyclobutanecarboxylic acid], for which it took 0.46 nM to reach half-maximal inhibition in data set [1] (Table E) (IC50).
